Measurements published in US5401768A, “2,5,6,7-tetranor-4,8-inter-m-phenylene PGI2, derivative, manufacturing process thereof and its use” (Toray Industries, Inc., priority 1987, dated 1995).
≈ marks a conversion by molar mass, not a printed value. Like-named read-outs stand apart in the source and are kept apart here.

Tests used:
[1] = tested on: platelet aggregation; assay: Platelet aggregation-inhibiting action (ADP-induced, platelet-rich plasma); format: cell-based; conditions: ADP 10 μM, compound added 1 minute before ADP, human PRP, read-out: IC50 (concentration which inhibits 50% platelet aggregation)
Experimental: Blood taken from human median cubital vein was centrifuged at 800 rpm for 10 minutes and the upper part was collected as platelet-rich plasma (PRP). PRP was put into small test tubes and […] (ADP) was added thereto (final concentration of 10 μM) to induce platelet aggregation. The degree of platelet aggregation was measured as the change of turbidity determined by using a platelet aggregation measuring apparatus (commercially available from Rikadenki Co., Ltd., Tokyo). The compound was added 1 minute before the addition of ADP. The concentration which inhibits 50% aggregation was designated as IC50.

[2] = tested on: gastric acid secretion; assay: Gastric acid secretion-inhibiting action (pentagastrin-stimulated, perfused stomach); format: in vivo, Male SD rat; conditions: PGE2 = 1; pentagastrin 0.05 μg/kg/min; femoral vein injection; area under pH curve
Experimental: Gastric acid secretion-inhibiting action
Male SD rat was incised in the abdomen under urethane anesthesia to open a hole at lumen of stomach. A double cannula was inserted from the hole and physiological saline was perfused in the stomack. The gastric acid flowed out was monitored by a pH meter (M. Chosh, H. Schild Br.J. Pharmacol 13, 54 (1958)). When the pH of the gastric acid was stabilized to about 4 after stimulation with continuous injection of pentagastrin at a rate of 0.05 μg/kg/min, the compound was injected through the femoral vein. As an index of the gastric acid secretion-inhibiting effect was measured using area enclosed by the curve from the point at which the pH started to increase by the gastric acid secretion-inhibiting effect to the point at which the pH is come back to the baseline. The relative effectiveness of gastric acid secretion-inhibiting effect of a compound was expressed when the value of PGE2 is 1, and the effectiveness of each compound was compared.

[3] = tested on: pressure of carotid arteries; assay: Hypotensive effect (carotid artery pressure, chloralose anesthesia); format: in vivo, Wistar rat (male); conditions: Rattus norvegicus, femoral catheter injection, read-out: ED25 mmHg (dose which may reduce the blood pressure by 25 mmHg)
Experimental: Under chloralose anesthesia, catheter was inserted to carotid arteries of Wistar rat (male). The catheter was connected to a polygraph via pressure transducer to measure the pressure of carotid arteries. The compound was injected via catheter connected to a femoral articles. The dose which may reduce the blood pressure by 25 mmHg from the dose-response curve was designated as ED25. The effectiveness of each compound was compared based on it.

[4] = tested on: ulcer index (corpus of stomack); assay: Cytoprotection (0.2N NaOH-induced gastric lesions, oral compound); format: in vivo; conditions: 30 minutes before oral 0.2N NaOH, read-out: ED50 (dose by which the ulcer index decreased to 50% of control)
Experimental: According to the method by A. Robert (Gartroerterolegy, 77(3), 443 (1979)), 30 minutes after oral administration of the compound, 0.2N NaOH was administered orally to the animals. After an hour, the animal was sacrified by chloroform anesthesia and the stomack was removed and fixed in 5% formalin solution. After fixation, the stomack was cut along the great curvature. A total length of blooding spot appearing on the corpus of stomack was measured and served as the ulcer index. When the ulcer index of the control group is taken as 100%, the dose of the compound by which the ulcer index decreased to 50% is designated as ED50.

[5] = tested on: gastric acid secretion; assay: Gastric acid secretion-inhibiting action by pylorus ligation (Shay's method); format: in vivo; conditions: Rattus norvegicus, injected into duodenum, 5 hours, 5 animals in a group
Experimental: Gastric acid secretion-inhibiting action by pylorus ligation
According to the Shay's method (Gastroeuterology 5, 43 (1945)), median section was performed on abdomen of the rat under ether anesthesia and pylorus was ligated with thread. At the same time, the compound was injected into duodenum and then the incision was closed. After 5 hours, the abdomen was incised again and whole stomach was removed after ligating esophagus. The great curvature of the stomack was incised and the content was transferred to a graduated centrifuge tube. After centrifugation at 3000 rpm for 10 minutes, the volume of the gastric juice was measured. A part of the supernatant was sampled and was titrated with 0.1N NaOH until the pH became 7 using pH star (commercially available from Radio Meter Co., Ltd.).

[6] = level of the acid (mEq/ml), read-out: ED50 Gastric Acid
[7] = volume decreased to 50% of control, read-out: ED50 Volume of Gastric Juice

## CCCCC[C@H](O)/C=C/[C@@H]1[C@H]2c3cccc(CCC(=O)O)c3O[C@H]2C[C@H]1O (relative stereo) [Compound 42, 2,5,6,7-tetranor-4,8-inter-m-phenylene PGI2]
[1]
  IC50: 5.8 ng/mL (≈ 0.0155 µM)
[2]
  Relative Effectiveness to PGE2 (gastric acid secretion inhibition): 3.6
[3]
  ED (25 mmHg): 0.00046 mg/kg
[4]
  ED50: 0.0486 mg/kg
[5]; [6]
  ED50: 3.8 mg/kg
[5]; [7]
  ED50: 4.6 mg/kg

## CCCCCC[C@H](O)/C=C/[C@@H]1[C@H]2c3cccc(CCC(=O)O)c3O[C@H]2C[C@H]1O (relative stereo) [Compound 45, 20a-homo-2,5,6,7-tetranor-4,8-inter-m-phenylene PGI2]
[2]
  Relative Effectiveness to PGE2 (gastric acid secretion inhibition): 3.5

## CCCCC(C)(C)[C@H](O)/C=C/[C@@H]1[C@H]2c3cccc(CCC(=O)O)c3O[C@H]2C[C@H]1O (relative stereo) [Compound 48, 16,16-dimethyl-2,5,6,7-tetranor-4,8-inter-m-phenylene PGI2]
[1]
  IC50: 1000 ng/mL (≈ 2.48 µM)
[3]
  ED (25 mmHg): 0.00084 mg/kg
[4]
  ED50: 0.0023 mg/kg
[5]; [6]
  ED50: 0.63 mg/kg
[5]; [7]
  ED50: 6.3 mg/kg

## O=C(O)CCc1cccc2c1O[C@H]1C[C@@H](O)[C@H](/C=C/[C@@H](O)C3CCCCC3)[C@@H]21 (relative stereo) [Compound 60, 15-cyclohexyl-2,5,6,7,16,17,18,19,20-nonanor-4,8-inter-m-phenylene PGI2]
[1]
  IC50: 3.8 ng/mL (≈ 0.00983 µM)
[2]
  Relative Effectiveness to PGE2 (gastric acid secretion inhibition): 1.3
[3]
  ED (25 mmHg): 0.00017 mg/kg
[4]
  ED50: 0.00679 mg/kg
[5]; [6]
  ED50: 2.39 mg/kg
[5]; [7]
  ED50: 1.19 mg/kg

## O=C(O)CCc1cccc2c1O[C@H]1C[C@@H](O)[C@H](/C=C/[C@@H](O)c3ccccc3)[C@@H]21 (relative stereo) [Compound 71, 15-phenyl-2,5,6,7,16,17,18,19,20-nonanor-4,8-inter-m-phenylene PGI2]
[1]
  IC50: 2.85 ng/mL (≈ 0.00749 µM)
[2]
  Relative Effectiveness to PGE2 (gastric acid secretion inhibition): 7.1
[3]
  ED (25 mmHg): 0.00026 mg/kg
[4]
  ED50: 0.0015 mg/kg
[5]; [6]
  ED50: 0.034 mg/kg
[5]; [7]
  ED50: 0.045 mg/kg

## CCCOC[C@H](O)/C=C/[C@@H]1[C@H]2c3cccc(CCC(=O)O)c3O[C@H]2C[C@H]1O (relative stereo) [Compound 101, 2,5,6,7-tetranor-17-oxa-4,8-inter-m-phenylene PGI2]
[2]
  Relative Effectiveness to PGE2 (gastric acid secretion inhibition): 4.9
[3]
  ED (25 mmHg): 0.0015 mg/kg
[4]
  ED50: 0.0789 mg/kg
[5]; [6]
  ED50: 0.9 mg/kg
[5]; [7]
  ED50: 1.4 mg/kg

## CCOCC(C)(C)[C@H](O)/C=C/[C@@H]1[C@H]2c3cccc(CCC(=O)O)c3O[C@H]2C[C@H]1O (relative stereo) [Compound 108, 16,16-dimethyl-2,5,6,7-tetranor-18-oxa-4,8-inter-m-phenylene PGI2]
[2]
  Relative Effectiveness to PGE2 (gastric acid secretion inhibition): 7.0
[4]
  ED50: 0.0035 mg/kg
[5]; [6]
  ED50: 2.02 mg/kg
[5]; [7]
  ED50: > 10 mg/kg

## O=C(O)CCc1cccc2c1O[C@H]1C[C@@H](O)[C@H](/C=C/[C@@H](O)COc3ccccc3)[C@@H]21 (relative stereo) [Compound 120, 16-phenoxy-2,5,6,7,17,18,19,20-octanor-4,8-inter-m-phenylene PGI2]
[1]
  IC50: 1000 ng/mL (≈ 2.44 µM)
[2]
  Relative Effectiveness to PGE2 (gastric acid secretion inhibition): 54
[3]
  ED (25 mmHg): 0.00051 mg/kg
[4]
  ED50: 0.00456 mg/kg
[5]; [6]
  ED50: 0.11 mg/kg
[5]; [7]
  ED50: 0.3 mg/kg

## CC(C)(Oc1ccccc1)[C@H](O)/C=C/[C@@H]1[C@H]2c3cccc(CCC(=O)O)c3O[C@H]2C[C@H]1O (relative stereo) [Compound 124, 16-methyl-16-phenoxy-2,5,6,7,18,19,20-heptanor-4,8-inter-m-phenylene PGI2]
[2]
  Relative Effectiveness to PGE2 (gastric acid secretion inhibition): 62
[3]
  ED (25 mmHg): 0.0013 mg/kg
[4]
  ED50: 0.003 mg/kg
[5]; [6]
  ED50: 0.19 mg/kg
[5]; [7]
  ED50: 0.75 mg/kg

## CCCCC(C)[C@H](O)/C=C/[C@@H]1[C@H]2c3cccc(CCC(=O)O)c3O[C@H]2C[C@H]1O (some centres unmarked) [Compound 51, 16-methyl-2,5,6,7-tetranor-4,8-inter-m-phenylene PGI2]
[2]
  Relative Effectiveness to PGE2 (gastric acid secretion inhibition): 35
[3]
  ED (25 mmHg): 0.00011 mg/kg
[4]
  ED50: 0.00046 mg/kg
[5]; [6]
  ED50: 0.21 mg/kg
[5]; [7]
  ED50: 0.36 mg/kg

## CCC[C@H](C)C[C@H](O)/C=C/[C@@H]1[C@H]2c3cccc(CCC(=O)O)c3O[C@H]2C[C@H]1O [Compound 54, 17-(S)-methyl-2,5,6,7-tetranor-4,8-inter-m-phenylene PGI2]
[1]
  IC50: 3.2 ng/mL (≈ 0.00824 µM)
[2]
  Relative Effectiveness to PGE2 (gastric acid secretion inhibition): 6.1
[3]
  ED (25 mmHg): 0.00078 mg/kg
[4]
  ED50: 0.00086 mg/kg
[5]; [6]
  ED50: 0.11 mg/kg
[5]; [7]
  ED50: 0.015 mg/kg

## CCCCC[C@H](O)/C=C/[C@H]1[C@H](O)CC(=O)[C@@H]1C/C=C\CCCC(=O)O [PGE2, reference compound]
[2]
  Relative Effectiveness to PGE2 (gastric acid secretion inhibition): 1
